# Measured values published in patent US20220296595A1, “CDK INHIBITORS” (QILU REGOR THERAPEUTICS INC., priority 2019, published 2022).
# Where two headings read alike, the source gives them in different places.
# Assays:
# CDK4/CyclinD1 = biological target: T1, CDK4/CyclinD1 (Homo sapiens, UniProt P11802); test: Assay for inhibition of CDK4/CyclinD1 (Caliper microfluidic kinase assay); assay type: biochemical
# T1 construct: purchased Thermofisher PR8064A
# Summary of the method: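 Caliper microfluidic mobility-shift assay tracking phosphorylation of 1 μM FL-34 peptide by 1 nM CDK4/CyclinD1 with 200 μM ATP in HEPES pH 7.5 buffer with 10 mM MgCl2. Reaction ran 3 h at room temperature, was stopped with EDTA, and IC50 came from a 4-parameter sigmoidal fit.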
# CDK6/CyclinD3 = biological target: T2, CDK6/CyclinD3 (Homo sapiens, UniProt Q00534); test: Assay for inhibition of CDK6/CyclinD3 (Caliper microfluidic kinase assay); assay type: biochemical
# T2 construct: purchased Carna 04-107
# Description: The CDK6 enzyme assay for IC50 determination was performed as follows. Microfluidic kinase detection technology (Caliper) was used to monitor the phosphorylation of peptide substrate by CDK6/CyclinD3. The total reaction volume is 15 μL containing buffer A (100 mM HEPES (pH 7.5), 0.1% BSA, 0.01% Triton X-100, 1 mM DTT, 10 mM MgCl2, 10 μM Sodium Orthovanadate, 10 μM Beta-Glycerophosphate), 300 μM ATP, 2 nM CDK6/CyclinD3 (Carna, 04-107), 1 μM FL-34 (5-FAM-[…]), and the test compound at appropriate dilutions in DMSO. All components were added to the 384-well plate (Corning, 4514), and incubated at Room Temperature for 3 hours. The reaction was terminated by addition of 15 μL Stop Buffer (180 mM HEPES (pH 7.5), 20 mM EDTA, Coating-3 reagent (PerkinElmer, 760050)). The plate was then loaded on Caliper EZ Reader (EZ Reader II, PerkinElmer, HD-4HYSG2772), and the reaction mixtures including substrate and product were sipped into the microfluidic chip for separation and detection. The IC50 values of the test compound were determined by fitting the inhibition curves by 4 parameter sigmoidal dose-response model using the Xlfit5/GraphPad Prism 5 software.
# CDK2/CyclinE1 = biological target: T3, CDK2/CyclinE1 (Homo sapiens, UniProt P24941); test: Assay for inhibition of CDK2/CyclinE1 (Caliper microfluidic kinase assay); assay type: biochemical; conditions: read-out: CDK2 IC50
# T3 construct: purchased SignalChem C29-18G
# Summary of the method: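 Caliper microfluidic mobility-shift assay: 5 nM CDK2/CyclinE1, 100 μM ATP, 5 μM FL-18 peptide (5-FAM-QSPKKG-NH2) in pH 7.5 HEPES buffer with MgCl2, DTT, BSA, Triton X-100. Incubated 3 hours at room temperature, EDTA-stopped; IC50 from 4-parameter sigmoidal fit.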
# T47D breast cancer cells = test: Anti-proliferation assay in T47D cell (Cyquant, day 6); assay type: cell-based, human; conditions: anti-proliferation, T47D cells, read-out: T47D IC50
# Summary of the method: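 Cells were grown in RPMI 1640 with 10% FBS at 37 °C and dosed the day after plating at ten concentrations, 10 μM to 0.51 nM in 3-fold steps. CyQuant fluorescence (ex 485/em 535 nm) was read on day 6. IC50 was fitted from baseline-subtracted viability curves, with the baseline read after overnight culture.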
# [1] = system: phosphorylation of Retinoblastoma Protein (pRb Ser807/811 or Ser780) in T47D cells; test: Inhibition of phosphorylation of retinoblastoma protein (pRb) in T47D cell (ELISA); assay type: cell-based, human
# Description: T47D breast cancer cells from American Type Culture Collection (ATCC, HTB-133) were plated at 40,000 cells/well in 96-well plates, and were incubated in RPMI 1640 medium (Gibco, 31800105) with 10% Fetal Bovine Serum (FBS, Biowest, FB-1058). Cells were then allowed to adhere overnight at 37° C., 5% CO2. The following day, compounds were titrated in a 3-fold dilution scheme, and the highest compound concentration tested was […]. After 24 hours incubation with compounds, cells were lysed in ice-cold lysis buffer containing phosphatase inhibitor cocktail and 1 mM PMSF. Cell lysates (50 μL/well) were then transferred to ELISA plates (pRb Ser807/811 ELISA kit, Cell Signaling, 13152 or pRb Ser780 ELISA kit, Cell Signaling, 13016)). Plates were incubated overnight at 4° C., with constant slow speed shaking. After incubation, plates were washed following manufacturer's recommendations, and then 100 μL reconstituted detection antibody was added to each well and incubated for 1 hour at 37° C. After incubation, plates were washed, and then 100 μL reconstituted HRP-linked secondary antibody was added to each well and incubated for 30 mins at 37° C. After incubation, plates were washed. Then, 100 μL TMB substrate was added to each well and incubated for 10 min at 37° C. or 30 min at 25° C. Finally, 100 μL of STOP solution was added to each well and mixed gently for a few seconds. Plates were read on the Envision plate reader (PerkinElmer, 2104-0010) using the 96-well […] mode. IC50 values were calculated using 4 parameter sigmoidal dose-response model of Xlfit5/GraphPad Prism 5 software.
# [2] = Homo sapiens, T47D, read-out: Phospho T47D Ser807 IC50, pRb Ser807 phosphorylation, T47D cells
# T2 sequence (Q00534 whole entry): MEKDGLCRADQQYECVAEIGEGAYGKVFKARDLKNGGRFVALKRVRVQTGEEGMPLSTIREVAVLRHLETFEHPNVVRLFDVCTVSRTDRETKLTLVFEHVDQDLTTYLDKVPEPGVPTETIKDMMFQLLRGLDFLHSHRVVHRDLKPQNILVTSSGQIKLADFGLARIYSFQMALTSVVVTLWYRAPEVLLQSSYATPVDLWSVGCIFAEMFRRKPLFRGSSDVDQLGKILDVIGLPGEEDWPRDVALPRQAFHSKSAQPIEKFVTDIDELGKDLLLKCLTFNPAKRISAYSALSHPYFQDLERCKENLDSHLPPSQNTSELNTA
# T2 sequence (P30281 whole entry partner): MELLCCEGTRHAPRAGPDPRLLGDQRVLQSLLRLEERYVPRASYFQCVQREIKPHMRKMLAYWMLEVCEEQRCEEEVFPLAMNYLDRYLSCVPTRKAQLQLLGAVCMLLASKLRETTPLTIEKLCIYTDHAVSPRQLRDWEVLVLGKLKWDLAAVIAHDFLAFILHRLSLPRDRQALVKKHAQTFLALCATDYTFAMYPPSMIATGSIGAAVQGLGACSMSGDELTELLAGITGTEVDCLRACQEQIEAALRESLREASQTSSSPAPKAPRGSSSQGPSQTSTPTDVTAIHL
# T1 sequence (P11802 whole entry): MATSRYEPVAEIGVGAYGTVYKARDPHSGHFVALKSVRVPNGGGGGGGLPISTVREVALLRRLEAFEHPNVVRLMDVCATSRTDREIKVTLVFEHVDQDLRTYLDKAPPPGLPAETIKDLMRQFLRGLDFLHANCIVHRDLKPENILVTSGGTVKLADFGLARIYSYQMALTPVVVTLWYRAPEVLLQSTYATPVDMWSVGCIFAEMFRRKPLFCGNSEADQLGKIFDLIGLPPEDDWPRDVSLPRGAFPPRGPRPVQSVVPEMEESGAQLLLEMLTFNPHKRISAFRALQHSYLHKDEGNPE
# T1 sequence (P24385 whole entry partner): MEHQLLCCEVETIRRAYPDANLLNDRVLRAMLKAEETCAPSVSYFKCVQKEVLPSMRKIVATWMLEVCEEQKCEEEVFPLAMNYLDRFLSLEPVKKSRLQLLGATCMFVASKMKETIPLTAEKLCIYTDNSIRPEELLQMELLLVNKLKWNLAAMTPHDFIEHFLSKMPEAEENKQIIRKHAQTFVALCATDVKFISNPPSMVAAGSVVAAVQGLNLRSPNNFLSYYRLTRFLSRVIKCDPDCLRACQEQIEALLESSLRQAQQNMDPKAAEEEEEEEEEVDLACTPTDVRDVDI
Compound,"IC50 (CDK4/CyclinD1; CDK4/CyclinD1, 200 μM ATP) [nM]","IC50 (CDK6/CyclinD3; CDK6/CyclinD3, 300 μM ATP) [nM]","IC50 (CDK2/CyclinE1; CDK2/CyclinE1, 100 μM ATP) [nM]",IC50 (T47D breast cancer cells) [nM],"IC50 (T47D breast cancer cells; Homo sapiens, T47D) [nM]","IC50 [1, 2] [nM]",IC50 (CDK4/CyclinD1; CDK4/CyclinD1) [nM],IC50 (CDK2/CyclinE1; CDK2/CyclinE1) [nM],IC50 (CDK6/CyclinD3; CDK6/CyclinD3) [nM],"IC50 ([1]; pRb Ser807 phosphorylation, T47D cells, read-out: Phospho T47D Ser807 IC50) [nM]"
"CC(C)c1cnn2ccc(-c3ccnc(Nc4ccc(N5CCC(N(C)C)CC5)cn4)n3)cc12 (single isomer, unassigned) [Synthetic Example 161, N-[5-[4-(dimethylamino)-1-piperidyl]-2-pyridyl]-4-(3-isopropylpyrazolo[1,5-a]pyridin-5-yl)pyrimidin-2-amine]",< 10,< 10,< 10,< 100,,,,,,
CC(C)c1cnn2ccc(-c3nc(NC4CCN(S(C)(=O)=O)CC4)ncc3F)cc12 [Synthetic Example 10],10 to 100,100 to 1000,10 to 100,,100 to 500,,,,,
CC(C)c1cnn2ccc(-c3ccnc(Nc4ccn(CC5CCN(C(=O)CO)CC5)n4)n3)cc12 [Synthetic Example 55],10 to 100,,> 1000,,500 to 1000,100 to 500,,,,
CC(C)c1cnn2ccc(-c3nc(Nc4ccc(N5CCOCC5=O)cn4)ncc3F)cc12 [compound 2],< 10,10 to 100,< 10,,< 100,,,,,
CC(C)c1cnn2ccc(-c3nc(Nc4ccc(CN5CCN6CCCC6C5)cn4)ncc3F)cc12 (stereo not drawn) [compound 8],10 to 100,100 to 1000,> 1000,,> 1000,,,,,
CC(C)c1cnn2ccc(-c3nc(Nc4ccc(N5CCC(N(C)C)CC5)cn4)ncc3F)cc12 [compound 9],< 10,10 to 100,100 to 1000,,100 to 500,,,,,
Cc1nc(Nc2ncc(F)c(-c3ccn4ncc(C(C)C)c4c3)n2)ccc1C(=O)N1CCC(NC2CC2)CC1 [compound 11],10 to 100,10 to 100,100 to 1000,,100 to 500,,,,,
CC(C)c1cnn2ccc(-c3nc(Nc4ccc(CN5CCOCC5=O)cn4)ncc3F)cc12 [compound 15],10 to 100,100 to 1000,100 to 1000,,500 to 1000,,,,,
CC(C)c1cnn2ccc(-c3ccnc(Nc4ccn(CC5CCNCC5)n4)n3)cc12 [compound 32],10 to 100,,> 1000,,100 to 500,100 to 500,,,,
CC(C)c1cnn2ccc(-c3ccnc(Nc4cnn(CC5CCNCC5)c4)n3)cc12 [compound 36],10 to 100,,10 to 100,,100 to 500,100 to 500,,,,
CC(C)c1cnn2ccc(-c3ccnc(Nc4ccn(CC5CCN(C(=O)CC#N)CC5)n4)n3)cc12 [compound 56],10 to 100,,> 1000,,,100 to 500,,,,
COc1nc(-c2nc(Nc3ccc(N4CC5CCC(C4)O5)cn3)ncc2F)cc2c1nc(C)n2C(C)C [compound 65],,,,,,100 to 500,10 to 100,> 1000,,
COc1nc(-c2ccnc(Nc3ccc(CN4CCC(C#N)C4)cn3)n2)cc2c1ncn2C(C)C (stereo not drawn) [compound 67],,,,,,100 to 500,10 to 100,> 1000,,
COc1nc(-c2nc(Nc3ccc(N4CCOCC4=O)cn3)ncc2C)cc2c1nc(C)n2C(C)C [compound 75],,,,,< 100,,< 10,100 to 1000,10 to 100,
COc1nc(-c2ccnc(Nc3ccc(CN4CCC(F)C4)cn3)n2)cc2c1ncn2C(C)C (stereo not drawn) [compound 76],,,,,,100 to 500,10 to 100,> 1000,,
COc1nc(-c2nc(Nc3ccc(N4CCC5(CC4)CC(=O)NC5=O)cn3)ncc2F)cc2c1nc(C)n2C(C)C [compound 79],,,,,,100 to 500,10 to 100,> 1000,,
COc1nc(-c2nc(Nc3ccc(C(=O)N4CCC(NC5CC5)CC4)c(C)n3)ncc2F)cc2c1nc(C)n2C(C)C [compound 86],,,,,100 to 500,,10 to 100,> 1000,10 to 100,
COc1nc(-c2nc(Nc3ccc(N4CCNCC4=O)cn3)ncc2F)cc2c1nc(C)n2C(C)C [compound 107],< 10,10 to 100,> 1000,,100 to 500,,,,,
COc1nc(-c2nc(Nc3ccc(N4CCN(CC(F)(F)F)CC4=O)cn3)ncc2F)cc2c1nc(C)n2C(C)C [compound 124],< 10,10 to 100,> 1000,,100 to 500,,,,,
COc1nc(-c2nc(Nc3ccc(N4CCN(CCF)CC4)cn3)ncc2F)cc2c1ncn2C(C)C [compound 125],10 to 100,,> 1000,,,100 to 500,,,,
COc1nc(-c2nc(Nc3ccc(N4CCN(C5COC5)CC4)cn3)ncc2F)cc2c1ncn2C(C)C [compound 133],10 to 100,,> 1000,,,100 to 500,,,,
CNC1CCCN(c2ccc(Nc3nccc(-c4ccn5ncc(C(C)C)c5c4)n3)cc2)C1=O (stereo not drawn) [compound 215],< 10,< 10,< 10,,< 100,,,,,
CNC1CCCN(c2ccc(Nc3nccc(-c4ccn5nc(C)c(C(C)C)c5c4)n3)cc2)C1=O (stereo not drawn) [compound 217],< 10,< 10,10 to 100,,< 100,,,,,
CC(C)c1cnn2ccc(-c3ccnc(Nc4ccc(N5CCNCC5=O)cc4)n3)cc12 [compound 226],< 10,< 10,< 10,,< 100,,,,,
CC(C)n1cnc2c(F)nc(-c3ccnc(Nc4ccc(N5CCN(C)CC5)cn4)n3)cc21 [compound 290],< 10,,100 to 1000,,,< 100,,,,
"N-[5-[4-(dimethylamino)-1-piperidyl]-2-pyridyl]-4-(3-isopropylpyrazolo[1,5-a]pyridin-5-yl)pyrimidin-2-amine [Synthetic Example 161]",,,,,,,,,,< 100
